The text below walks through data of patent US20060264460A1 (Wyeth, priority 2005, published 2006).

One may read the IC50 as the point on the concentration scale where inhibition reaches its midpoint.

T1 sequence (P41279 30-398): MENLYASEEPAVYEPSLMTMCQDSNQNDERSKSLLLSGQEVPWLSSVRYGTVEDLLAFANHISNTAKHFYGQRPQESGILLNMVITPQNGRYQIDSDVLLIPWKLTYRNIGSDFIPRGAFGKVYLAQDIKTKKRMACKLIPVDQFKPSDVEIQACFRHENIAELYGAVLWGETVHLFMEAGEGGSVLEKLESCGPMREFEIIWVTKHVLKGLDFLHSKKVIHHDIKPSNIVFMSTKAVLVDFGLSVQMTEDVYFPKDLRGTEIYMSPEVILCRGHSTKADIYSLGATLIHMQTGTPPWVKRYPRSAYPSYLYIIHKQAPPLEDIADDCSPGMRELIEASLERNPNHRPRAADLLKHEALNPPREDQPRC

This test concerns the target T1, human Cot/Tpl2 kinase (Homo sapiens, UniProt P41279).
T1 construct: human Cot/Tpl2 kinase construct encoding residues 30-398; 6His (N); made in house; host or cells: Sf9 insect cells, baculovirus system (BD Biosciences)
Kind of test: Tpl2/Cot kinase assay: GST-MEK1 phosphorylation detected by ELISA (DELFIA Eu). Format: biochemical. The following applies: Tpl2/Cot kinase, GST-MEK1 substrate, 50 uM ATP, 1 h at 30° C.; Table 2. The gist of the method: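 His-tagged human Tpl2 from Sf9 cells, Ni-affinity and size-exclusion purified (monomer). 0.4 nM Tpl2 with 35 nM GST-MEK1, 50 uM ATP, MOPS pH 7.2, 1% DMSO, 1 h at 30° C; EDTA stop. MEK1 Ser217/221 phosphorylation detected by anti-phospho-MEK1 and Eu-labelled secondary ELISA; IC50 fitted.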
For `N#CCN1CCC(n2cc(CNc3cc(Cl)c4ncc(C#N)c(Nc5ccc(F)c(Cl)c5)c4c3)nn2)CC1` [Example 998], the IC50 worked out at 22 nM.

Turning to `CC(C)N1CCC(n2cc(CNc3cc(Cl)c4ncc(C#N)c(NC5CCC5)c4c3)nn2)CC1` [Example 999], the IC50 turned out to be 130 nM. This IC50 is about 5.9-fold higher than that of the compound before.

With `CC(C)N1CCC(n2cc(CNc3cc(Cl)c4ncc(C#N)c(NC5CCOCC5)c4c3)nn2)CC1` [Example 1000], the IC50 stood at 480 nM.

In turn, `N#Cc1cnc2c(Cl)cc(NCc3cn(CC(O)c4ccncc4)nn3)cc2c1Nc1ccc(F)c(Cl)c1` (centres unmarked) [Example 1001] registered an IC50 of 19 nM.

Take `N#Cc1cnc2c(Cl)cc(NCc3cccs3)cc2c1Nc1ccc(F)c(Cl)c1` [Example 1002]: the IC50 was above 3000 nM.

For `N#Cc1cnc2c(Cl)cc(NCc3cn(C4CCN(C5CC5)CC4)nn3)cc2c1Nc1ccc(F)c(Cl)c1` [Example 1003], the IC50 amounted to 17 nM.

`N#Cc1cnc2c(Cl)cc(NCc3cc(Br)cs3)cc2c1Nc1ccc(F)c(Cl)c1` [Example 1004] registered an IC50 above 3000 nM.

Compound `CCN1C2CCC1CC(n1cc(CNc3cc(Cl)c4ncc(C#N)c(Nc5ccc(F)c(Cl)c5)c4c3)nn1)C2` (centres unmarked) [Example 1005] showed an IC50 of 41 nM.

Turning to `CC(C)(C)OC(=O)N1CCCC(n2cc(CNc3cc(Cl)c4ncc(C#N)c(Nc5ccc(F)c(Cl)c5)c4c3)nn2)CC1` (centres unmarked) [Example 1006], it took 240 nM to reach half-maximal inhibition (IC50). Compared with the last compound, the IC50 is about 5.9-fold higher.

As to `N#Cc1cnc2c(Cl)cc(NCc3cn(C4CCCNCC4)nn3)cc2c1Nc1ccc(F)c(Cl)c1` (centres unmarked) [Example 1007], half-maximal inhibition (IC50) required 16 nM.

As to `N#Cc1cnc2c(Cl)cc(NCc3cn(C4CCN(c5ncccc5C(F)(F)F)CC4)nn3)cc2c1Nc1ccc(F)c(Cl)c1` [Example 1008], the IC50 is 490 nM.

Take `N#Cc1cnc2c(Cl)cc(NCc3cn(C4CCCN(CC(F)(F)F)CC4)nn3)cc2c1Nc1ccc(F)c(Cl)c1` (centres unmarked) [Example 1009]: half-maximal inhibition (IC50) was put at 270 nM.

In the case of `N#Cc1cnc2c(Cl)cc(NCc3cn(C4CCCN(CC(F)F)CC4)nn3)cc2c1Nc1ccc(F)c(Cl)c1` (centres unmarked) [Example 1010], the IC50 amounted to 310 nM.

In turn, `N#Cc1cnc2c(Cl)cc(NCc3cn(C4CCCN(CCF)CC4)nn3)cc2c1Nc1ccc(F)c(Cl)c1` (centres unmarked) [Example 1011] gave an IC50 of 9.1 nM.

Regarding `N#Cc1cnc2c(Cl)cc(NCc3cn(C4CCCN(CC(F)(F)C(F)(F)F)CC4)nn3)cc2c1Nc1ccc(F)c(Cl)c1` (centres unmarked) [Example 1012], the IC50 was above 3000 nM.

Compound `N#Cc1cnc2c(Cl)cc(NCc3cn(C4CCCN(CC(F)(F)C(F)F)CC4)nn3)cc2c1Nc1ccc(F)c(Cl)c1` (centres unmarked) [Example 1013] yielded an IC50 of 430 nM.

As for `N#Cc1cnc2c(Cl)cc(NCc3cn(C4CCN(CC(F)(F)F)CC4)nn3)cc2c1Nc1ccc(F)c(Cl)c1` [Example 1014], inhibition was half-maximal at 280 nM (IC50).

In turn, `N#Cc1cnc2c(Cl)cc(NCc3cn(C4CCN(CC(F)F)CC4)nn3)cc2c1Nc1ccc(F)c(Cl)c1` [Example 1015] showed an IC50 of 92 nM. This IC50 lies about 3-fold lower than the previous one.

As for `N#Cc1cnc2c(Cl)cc(NCc3cn(C4CCN(CCF)CC4)nn3)cc2c1Nc1ccc(F)c(Cl)c1` [Example 1016], the IC50 is 15 nM.

`N#Cc1cnc2c(Cl)cc(NCc3cn(C4CCN(CC(F)(F)C(F)(F)F)CC4)nn3)cc2c1Nc1ccc(F)c(Cl)c1` [Example 1017] registered an IC50 of 1040 nM. This IC50 lies about 69-fold higher than the previous one.

The compound `N#Cc1cnc2c(Cl)cc(NCc3cn(C4CCN(CC(F)(F)C(F)F)CC4)nn3)cc2c1Nc1ccc(F)c(Cl)c1` [Example 1018] returned an IC50 of 400 nM.

For `N#Cc1cnc2c(Cl)cc(NCc3cncc(C(O)(C(F)(F)F)C(F)(F)F)c3)cc2c1Nc1ccc(F)c(Cl)c1` [Example 1019], the IC50 is above 3000 nM.

`N#Cc1cnc2c(Cl)cc(NCc3cn(CCc4cccnc4)nn3)cc2c1Nc1ccc(F)c(Cl)c1` [Example 1020] had an IC50 of 130 nM.

`N#CCn1cc(CNc2cc(Cl)c3ncc(C#N)c(Nc4ccc(F)c(Cl)c4)c3c2)nn1` [Example 1021] returned an IC50 of 430 nM.

For `CN(C)CCCc1csc(CNc2cc(Cl)c3ncc(C#N)c(Nc4ccc(F)c(Cl)c4)c3c2)c1` [Example 1022], the midpoint of inhibition, the IC50, lay at 980 nM.

`CN(C)CC#Cc1csc(CNc2cc(Cl)c3ncc(C#N)c(Nc4ccc(F)c(Cl)c4)c3c2)c1` [Example 1023] yielded an IC50 of 1160 nM.
